Source: EP4806894A1, “TNAP INHIBITORY COMPOUND AND USE THEREOF” (Rednvia Co., Ltd., priority 2023, dated 2025)

How the values were obtained:
[1] = target: T1, TNAP (Homo sapiens, UniProt P05186); assay: TNAP inhibitory activity, colorimetric assay (alkaline phosphatase assay kit ab83369, pNPP substrate); format: biochemical; settings: TNAP enzyme, 2 hours at room temperature, absorbance 405 nm
T1 sequence (P05186 18-502 limits assumed): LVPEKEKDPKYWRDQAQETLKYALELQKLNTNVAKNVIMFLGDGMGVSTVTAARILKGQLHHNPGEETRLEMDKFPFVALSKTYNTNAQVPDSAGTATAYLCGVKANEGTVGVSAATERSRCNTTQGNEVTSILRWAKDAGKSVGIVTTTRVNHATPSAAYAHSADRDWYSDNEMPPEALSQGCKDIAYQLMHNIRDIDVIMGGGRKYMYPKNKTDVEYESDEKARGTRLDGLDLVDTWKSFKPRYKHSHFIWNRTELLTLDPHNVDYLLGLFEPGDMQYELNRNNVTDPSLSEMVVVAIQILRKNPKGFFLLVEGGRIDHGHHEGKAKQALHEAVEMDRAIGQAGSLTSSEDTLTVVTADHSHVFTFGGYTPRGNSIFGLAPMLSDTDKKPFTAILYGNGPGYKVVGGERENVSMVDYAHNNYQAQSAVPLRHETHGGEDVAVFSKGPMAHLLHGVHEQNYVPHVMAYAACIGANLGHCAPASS

[2] = test system: saos-2 cells; assay: Anticalcification efficacy in saos-2 cells (osteogenic medium, Alizarin Red staining); format: cell-based; settings: test compound 1 µM, 7 days osteogenic medium, Alizarin Red absorbance 540 nm
Procedure, shortened: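 Saos-2 cells at 80–90% confluence induced for 7 days in osteogenic medium (DMEM, 100 nM dexamethasone, 10 mM β-glycerophosphate, 0.05 mM ascorbic acid), compound (0.5, 1, 5, 10 […]) added with each medium change. Alizarin Red staining eluted with cetylpyridinium chloride, A540 read; inhibition taken against OM-only absorbance.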

[3] = test system: C57BL/6 mouse; assay: Warfarin-induced calcification mouse animal model (aortic valve histopathology); format: in vivo; settings: for blackened area (von Kossa staining, increased calcification): Figure 1, versus warfarin and vitamin K1-induced calcification group (B); for Number of inflammatory cells (cells/mm^2): aortic valve area; for Number of inflammatory cells (cells/mm^2) / Mean thickness (µm): HE staining; for Number of inflammatory cells (cells/mm^2) / Mean thickness (µm) / Calcified area (%/mm^2): warfarin and vitamin K1 for 4 weeks, C57BL/6 mouse; for Mean thickness (µm) / Calcified area (%/mm^2): aortic valve; for Calcified area (%/mm^2): von Kossa staining
Protocol: • 1. Animal: C57BL/6 mouse (OrientBio, Sungnam-city, Korea) • Gender: male • Age on arrival: C57BL/6 (6 weeks) • Raising: Animals were raised in filter cap polycarbonate cages, 5 animals each, in a temperature (25°C) and humidity (45-55%) controlled sterile clean room. The light:dark cycle was 12 hours:12 hours, and sterilized food and water were provided with free access. • Guidelines: All animals were treated in accordance with the Daegu Haany University Institutional Animal Care and Use Committee (Gyeongsan, Korea). • 2. General experimental methods: In vivo drug administration
After acclimating the mice for one week, they were divided into each group and tested.
After acclimation for one week, the groups were randomized.
The mice were divided into four groups: a group that received no treatment (A), a group that was treated with warfarin and vitamin K1 to induce calcification (B), a group that was administered orally with 0.5% CMC (carboxymethyl Cellulose) (C), and a group that was administered with the test compound. The compounds of Example 1 (K) and Example 6 (L) were selected as the test compound.
All groups, except the untreated control group (Normal), were administered both warfarin and vitamin K1 at 8:00 AM and warfarin alone at 8:00 PM for 4 weeks.
Heart tissue samples were obtained from each group and used for analysis.
(§1) Individual heart samples were cut crosswise, one section at a time, around the origin/root region of the ascending aorta. Histological sections were then prepared from all the samples received. All cross-sectioned cardiac-aortic valve sections were refixed in 10% neutral buffered formalin for 24 hours to prepare histological samples. After the samples were embedded in paraffin, two serial sections of 3 to 4 µm thickness were prepared on each paraffin block and stained with hematoxylin & eosin (HE) for general histopathology or von Kossa (VK) for calcium deposition, respectively. To observe more detailed changes, a computer-assisted image analysis program and a histological camera system were used to calculate the mean aortic valve thickness (µm) and the number of inflammatory cells infiltrating the aortic valve area (cells/mm^2) in HE staining, and the mean calcified aortic valve area (%/mm^2) in VK staining in this histopathological analysis.

[4] = test system: C57BL/6 mouse; assay: Vitamin D-induced calcification mouse animal model (aortic valve histopathology); format: in vivo; settings: for blackened area (von Kossa staining, increased calcification): Figure 2, versus high-dose vitamin D3-induced calcification group (B); for Number of inflammatory cells (cells/mm^2): aortic valve area; for Number of inflammatory cells (cells/mm^2) / Mean thickness (µm): HE staining; for Number of inflammatory cells (cells/mm^2) / Mean thickness (µm) / Calcified area (%/mm^2): vitamin D3 6.5x10^5 IU/Kg s.c. for 3 days, compound orally once a day for 8 days, mouse; for Mean thickness (µm) / Calcified area (%/mm^2): aortic valve; for Calcified area (%/mm^2): von Kossa staining
Protocol: as §1
Experimental animals were prepared similarly to Experimental Example 3. Excluding the normal group, four groups were administered with high-dose (6.5x10^5 IU/Kg) vitamin D3 subcutaneously once a day for a total of 3 days to induce calcification. The compounds of Examples 1 and 6 were administered orally together from the first day of vitamin D3 administration, and then administered once a day for 5 more days without vitamin D3 administration, for a total of 8 days.
Samples were obtained and analyzed in the same manner as in Experimental Example 3.

Row | Compound | IC50 [1] [nM] | calcification inhibition [2] | blackened area (von Kossa staining, increased calcification) [3] | Number of inflammatory cells (cells/mm^2) [3] [cells/mm^2] | Mean thickness (µm) [3] [µm] | Calcified area (%/mm^2) [3] [%/mm^2] | blackened area (von Kossa staining, increased calcification) [4] | Number of inflammatory cells (cells/mm^2) [4] [cells/mm^2] | Mean thickness (µm) [4] [µm] | Calcified area (%/mm^2) [4] [%/mm^2] | inhibition at 1 µM ([2]; Homo sapiens, 168 h, read-out: calcification inhibition) [%]
1 | 5-chloro-2-methoxy-N-(5-oxo-6,7-dihydro-5H-pyrrolo[3,4-b]pyridine-3-yl)benzenesulfonamide [Example 1] | 10 to 100 | A (inhibition of 50% or more was expressed as "A") | significantly reduced | 144.40±43.12 | 112.42±10.81 | 2.45±0.64 | significantly reduced | 110.89±21.64 | 64.26±12.34 | 7.95±1.16 | 
2 | COc1ccc(Cl)cc1S(=O)(=O)Nc1cnc2c(c1)C(=O)NCC2 [Example 6, 5-chloro-2-methoxy-N-(5-oxo-5,6,7,8-tetrahydro-1,6-naphthyridine-3-yl)benzenesulfonamide] | ≤ 10 |  | significantly reduced | 80.40±14.90 | 91.69±15.70 | 1.16±0.30 | significantly reduced | 58.89±17.32 | 51.76±10.39 | 2.44±0.92 | ≥ 50
